The METLIN SMRT retention time set (Domingo-Almenara et al. 2019)

Experiment: gradient 5% acetonitrile 3 min, to 50% in 2 min, to 85% in 15 min, held 3 min, 100 µL/min
Details: column: Zorbax Extend-C18 2.1 x 50 mm; eluents: water / acetonitrile, 0.1% formic acid
Procedure, shortened: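 Retention time was recorded from adduct peaks, which were picked computationally and each inspected manually. Pure standards ran in mixtures of ~100 molecules on HPLC coupled to a quadrupole time-of-flight mass spectrometer, in positive and negative ionization mode, through a Zorbax Extend-C18 column (2.1 × 50 mm, 1.8 μm) at 100 μL/min. Eluents were water and acetonitrile, each with 0.1% formic acid.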

Row | RP-LC retention time [s] | Compound
1 | 710 | O=C(NC1CC1)c1cc(-c2cccs2)n(C2CCS(=O)(=O)C2)n1 (stereo not drawn)
2 | 1110 | Fc1ccc(-c2nnc(Cc3nc(-c4cccc(C(F)(F)F)c4)no3)o2)cc1
3 | 755 | OC(CNCc1ccc(-c2ccc(Br)cc2)o1)c1ccccc1 (stereo not drawn)
4 | 1130 | CCCCN1C(=O)c2cc(S(=O)(=O)Nc3ccccc3C)ccc2Oc2cccnc21
5 | 805 | O=C(Cc1ccsc1)N1CCCC1(CO)Cc1ccccc1 (stereo not drawn)
6 | 656 | COc1cccc(CNC(=O)C2CCN(S(=O)(=O)c3cn(C)cn3)CC2)c1
7 | 644 | CC(=O)Nc1ccc(CCc2nc3ccc(C(=O)NCCc4c[nH]c5ccccc45)cc3[nH]2)cc1
8 | 619 | Cc1c2ccnc(C(N)=O)c2c(C)c2c1[nH]c1ccccc12
9 | 978 | CCOc1cccc(-c2noc(CCn3nc(-c4ccc5c(c4)OCO5)ccc3=O)n2)c1
10 | 1180 | O=C(Nc1cccc2c(=O)cc(-c3nn[nH]n3)oc12)c1ccc(OCCCCc2ccccc2)cc1
11 | 828 | O=C(Nc1ccccc1F)N1CCC(n2cnc3c(Cl)cccc3c2=O)CC1
12 | 734 | CCC(=O)N1CCc2c(sc3ncnc(N4CCc5ccccc54)c23)C1
13 | 893 | COCc1nnc(C(=O)Nc2ccc(C(=O)NCCc3c[nH]c4ccc(Cl)cc34)cc2)s1
14 | 798 | CCOc1ccccc1NS(=O)(=O)c1cc(-c2c(C)noc2NC(C)=O)ccc1OC
15 | 599 | Cc1cc(N2CCC(C)CC2)n2nc(CN3CCN(c4ccccn4)CC3)nc2n1
16 | 665 | Cc1c(C(=O)N2CCc3nc(NC(=O)C4CCCO4)sc3C2)cnn1-c1ccccc1 (stereo not drawn)
17 | 863 | COc1ccc(CNc2ncc(C(=O)O)c(C(C)C)n2)cc1OC
18 | 934 | Cc1cc(C(=O)N2CCCCC2)c2c(=O)n(CC(=O)c3c(C)n(C)c4ccccc34)c(=O)n(C)c2n1
19 | 763 | CC(C)c1cc(=O)n2c(n1)SCC2CC(=O)Nc1cccc(F)c1 (stereo not drawn)
20 | 662 | CN(CCc1ccccn1)c1ccc2c(c1)C(=O)c1ccccc1-2
21 | 575 | CCCOc1ccc(CN2C[C@@H](CO)[C@H](c3ccncc3)C2)cc1
22 | 943 | Cc1ccc(-c2noc(C3CC(=O)N(c4ccc5c(c4)OCCO5)C3)n2)cc1 (stereo not drawn)

Row | RP-LC retention time [s] | Compound
23 | 594 | CCN1CCN(c2cc(C(=O)O)c3cc(NS(=O)(=O)c4cc(F)ccc4F)ccc3n2)CC1
24 | 808 | COc1ccc(N2CC(c3nc(-c4ccccc4F)no3)CC2=O)cc1OC (stereo not drawn)
25 | 597 | CCN(CC)CCCNC(=O)C1c2ccccc2C(=O)N2CCc3cc(OC)c(OC)cc3C12 (stereo not drawn)
26 | 838 | CCc1ccccc1NS(=O)(=O)c1cc(-c2c(CC)noc2NC(C)=O)ccc1OC
27 | 1020 | COc1ccc(-c2nnc(-c3ccccc3)o2)cc1S(=O)(=O)N1CCCCC1
28 | 1110 | CC(C)Oc1ccc(-c2noc(Cc3nnc(-c4ccc(F)cc4)o3)n2)cc1
29 | 514 | CCn1nccc1C(=O)N1C[C@@H](CO)[C@H](NC(C)=O)C1
30 | 750 | CN1CCN(c2c(F)cc(C(=O)Nc3nc(-c4ccccc4)cs3)c(F)c2F)CC1
31 | 1170 | CCCNc1nc(-c2ccc(C3CCCCC3)cc2)cs1
32 | 614 | O=C(CN1C(=O)CCSc2ccccc21)NCCCN1CCN(Cc2ccccc2)CC1
33 | 658 | Cn1cc(C(=O)Nc2ccc(N3CCOCC3)cc2)c2cccnc21
34 | 765 | Cc1nn(C)cc1CN(C)C(=O)CC(c1ccccc1)c1ccccc1
35 | 653 | COCc1nc2c(NC(=O)C(C)C)cccn2n1
36 | 773 | O=C(NCCn1c(=O)n(Cc2ccccc2)c2cccnc21)c1ccc2c(c1)OCO2
37 | 982 | CC(=O)N1CCCSc2ccc(S(=O)(=O)N3CCN(c4cccc(C)c4)C(C)C3)cc21 (stereo not drawn)
38 | 756 | O=C(c1cn2ccnc(-c3ccc(F)cc3)c2n1)N1CCN(c2ncccn2)CC1
39 | 665 | CN(Cc1nc2cc(C(=O)N3CCCC3)ccc2n1C)C(=O)Nc1cccc(Br)c1
40 | 659 | N#Cc1cccc(C(=O)Nc2ccc3cn[nH]c3c2)c1
41 | 954 | O=C(CCn1nnc2cc(-c3noc(-c4ccccc4Br)n3)ccc21)N1CCCC1
42 | 1000 | O=C(Nc1ccc2c(c1)OCCO2)N1CCN(c2nc3cccnc3n(Cc3ccccc3)c2=O)CC1
43 | 713 | O=C(c1cc(-c2ccccn2)n[nH]1)N1CCCC(C(=O)N2CCc3ccccc32)C1 (stereo not drawn)
44 | 702 | COc1ccc(CCNC(=O)C2CCc3nc(N4CCCCC4)ncc3C2)cc1OC (stereo not drawn)

Row | RP-LC retention time [s] | Compound
45 | 772 | COc1ccc2nc(C(=O)NCc3ccccc3)cn2n1
46 | 895 | CC1(C(=O)NCc2ccc(F)cc2)CCCN(C(=O)NC2CCCCC2)C1 (stereo not drawn)
47 | 707 | COc1cc(NC(=O)C2CCN(S(=O)(=O)c3cn(C(C)C)cn3)CC2)cc(OC)c1OC
48 | 788 | Cc1nn(CCCC(=O)N2CCOCC2)c(=O)c2c(-n3cccc3)n(-c3ccccc3)nc12
49 | 666 | CC(C)NC(=O)C1CCCN(c2nc3ncn(CC(=O)NC4CCCCC4)c(=O)c3s2)C1 (stereo not drawn)
50 | 573 | CCN1CCN(C(=O)C2Cn3cccc3C(=O)N2CC(C)C)CC1 (stereo not drawn)
51 | 607 | N#Cc1ccccc1CN1CCC(N2CC(OCC3CC3)C23CCCCC3)CC1 (stereo not drawn)
52 | 888 | O=C(c1ccc(Cl)cc1)N1CCN(C(=O)c2nnn3c2COC(c2ccccc2)C3)CC1 (stereo not drawn)
53 | 688 | O=C(NCC1CC1)c1c(OCC2CC2)cc(=O)n2c1CCCCC2
54 | 730 | O=C(CCn1cnc2cc(-c3noc(COc4ccccc4)n3)ccc21)N1CCCC1
55 | 632 | CCC1CN(C(=O)N2CCC(C(=O)NCCCN3CCOCC3)CC2)c2ccccc2O1 (stereo not drawn)
56 | 561 | CCOC(=O)N1CCN(C(=O)CCC2CCN(c3cc(NC4CC4)ncn3)CC2)CC1
57 | 684 | COc1ccc(Cl)cc1NC(=O)NCC1(CO)CC1
58 | 602 | COc1ccccc1N1CCN(Cc2nc3nc(C)cc(N4CCOCC4)n3n2)CC1
59 | 642 | CCOC(=O)C1CCN(Cc2nc3nc(C)cc(N4CCC(C)CC4)n3n2)CC1
60 | 1040 | CCn1c(=O)c(C(=O)N2CCN(c3cc(C)ccc3C)CC2)nc2cccnc21
61 | 634 | CN(C)C(=O)N1CC(c2noc(-c3cccnc3)n2)C2(CCOCC2)C1 (stereo not drawn)
62 | 880 | O=C(c1ccc2c(c1)CCCN2S(=O)(=O)c1ccc(Cl)cc1)N1CCOCC1
63 | 833 | CCOc1ccccc1NC(=O)N1CCCC1c1c(C)noc1C (stereo not drawn)
64 | 1170 | COc1ccccc1C(=O)Nc1cnc(-c2ccc(Cl)cc2)nc1
65 | 677 | O=C(Nc1ccc2c(c1)OCO2)C(=O)NC1CC1
66 | 1090 | O=S(=O)(c1ccc(-c2nnc(C3CCC3)o2)o1)N1CCN(c2ccccc2)CC1

Row | RP-LC retention time [s] | Compound
67 | 681 | COc1cccc(N2CCN(C(=O)c3cc(NC(=O)C(C)C)cc4nc(C)ccc34)CC2)c1
68 | 1130 | CCc1ccc(-c2noc(Cn3cnc4c(cnn4-c4ccc(OC)cc4)c3=O)n2)cc1
69 | 858 | CC1Oc2ccc(S(=O)(=O)N3CCC(C(=O)N(C)C4CCCCC4)CC3)cc2NC1=O (stereo not drawn)
70 | 1050 | CCn1ccc(C(=O)N2CCc3cc(-c4csc(C5CC5)n4)ccc32)n1
71 | 1000 | CCCC1O[C@@H]2C[C@H]3[C@@H]4CCC5=CC(=O)C=C[C@]5(C)[C@H]4[C@@H](O)C[C@]3(C)[C@]2(C(=O)CO)O1 (stereo partly drawn)
72 | 823 | CC(C)(C)C(=O)Nc1nc2cc3c(cc2s1)OCO3
73 | 983 | CC1(C(=O)NCc2ccccc2)CCCN(C(=O)Nc2cccc(Br)c2)C1 (stereo not drawn)
74 | 743 | Cc1ccc(N2CCN(S(=O)(=O)c3cc4n(c3)CCCNC4=O)CC2)cc1
75 | 1050 | CCn1cc2c3c(cccc31)CN(C(=O)Nc1ccc(Cl)cc1F)CC2
76 | 577 | NCCC1CCN(C(=O)Nc2ccccc2)CC1
77 | 801 | CCC(C)NC(=O)N1CC(Oc2cccc(-c3nc(C)no3)c2)C1 (stereo not drawn)
78 | 616 | OCCOCCNCc1ccc(-c2ccccc2F)o1
79 | 812 | O=C(NC1CCCCCC1)C1CC(=O)N(CCc2c[nH]c3ccc(F)cc23)C1 (stereo not drawn)
80 | 963 | CC(=O)c1cccc(NC(=O)Cn2c(-c3ccc(F)cc3)nc(C)cc2=O)c1
81 | 811 | CCn1nccc1C(=O)N1CC(Oc2cccc(-c3nc(C)no3)c2)C1
82 | 815 | O=C(CN1C(=O)NC2(CCCCC2)C1=O)Nc1cccc(Cl)c1
83 | 664 | Clc1cc(Br)ccc1-c1ccc(CNCc2cccnc2)o1
84 | 774 | CC(=O)N1CCCSc2ccc(S(=O)(=O)N3CCCC3)cc21
85 | 1030 | O=C1COc2ccccc2N1Cc1nc(-c2ccc3c(c2)nnn3C2CCCC2)no1
86 | 624 | CCOc1cc(-c2ccc(F)cc2)nc2ccc(C(=O)N3CCN(c4ccccn4)CC3)cc12
87 | 910 | COc1ccccc1-c1noc(Cn2c(=O)n(-c3ccccc3C)c(=O)c3sccc32)n1

Row | Compound | RP-LC retention time [s]
88 | CCOc1ccc(C(=O)N2CCC3(C2)C(=O)Nc2ccc(OC)cc23)cc1 (stereo not drawn) | 737
